One test deals with IL-1β gene expression. Briefly: IL-1β gene expression in MCAo mice brains. To be noted: 5 mg/kg i.v., 18 hrs following MCAo.
The next test has as its system IL-1β secretion. Briefly: IL-1β secretion in LPS activated macrophages. The test is classed as cell-based. To be noted: Mus musculus, Macrophage, read-out: IC50 for inhibition of IL-1β secretion. An excerpt: The technique used to quantify the amount of a given protein in a liquid sample, either tissue culture supernatant or body fluid, is based on Enzyme Linked ImmunoSorbent Assay (ELISA) methodology. Either commercially available or established in house, the assay is based on the capture of the protein of interest by specific antibodies bound to the bottom of an ELISA plate well. Unbound material is washed away, the captured protein is then exposed to a secondary antibody generally labeled with horseradish peroxidase (HRP) or alkaline phosphatase (ALP). Again the unbound material is washed away, the samples are then incubated with the appropriate substrate yielding a colorimetric reaction. The reaction is stopped and reading is carried out in a spectrophotometer at the appropriate wavelength. Samples are tested at least in duplicate and the appropriate standard curve, consisting of serial dilutions of the recombinant target protein, is incorporated on each plate. Concentration of the protein in the sample is calculated from the standard curve.
RAW 264.7 macrophages, a mouse cell line (ATCC # TIB 71), were grown in Dulbecco's modified Eagle's medium (DMEM) with 4 mM L-glutamine adjusted to contain 1.5 g/L sodium bicarbonate, 4.5 g/L glucose, and 10% heat inactivated fetal bovine serum. […]

For a further test, the system named is IL-10 gene expression. Kind of test: IL-10 gene expression in MCAo mice brains. To be noted: 5 mg/kg i.v., 18 hours of MCAo.
A further test concerns the target recombinant COX-2 (Homo sapiens, UniProt P35354). Kind of test: In vitro enzymatic activity of recombinant COX-2 (PGF2α EIA). Format: biochemical. The note with it: purified COX-2, test compounds up to 10 μM, 5 min preincubation, substrate AA.
Another test deals with IL-2 gene expression. Briefly: IL-2 gene expression in MCAo mice brains. To be noted: 5 mg/kg i.v., 18 hrs following MCAo.
The subject of test [1] is TH-immunoreactive cells at the SNpc (MPTP-induced dopaminergic toxicity). Kind of test: MPTP short-term model: TH immunoreactive cells at the SNpc. Format: in vivo, mice. As for the experimental part: The mice (C57/BL male mice, average weight 30 g, Harlan, Israel) were administered i.p. with 4 injections of MPTP (Sigma, USA) (20 mg/kg, 5 ml/kg) in saline (Teva Medical Israel) at 2 hours interval on day 1. The test compounds and vehicle control (cremophor:ethanol diluted in saline) were injected i.p. once just before the first MPTP administration at a volume dose of 5 ml/kg. Dexanabinol was tested at 10, 20, and 30 mg/kg and PRS-211,220 was tested at 0.5, 1, and 5 mg/kg. Each treatment group was composed of at least seven animals. Seven days following the MPTP treatment the animals are euthanized by i.p. administration of 100 mg/kg pentobarbitone sodium (CTS, Israel) and their brains are removed for tyrosine hydroxylase (TH) detection using immunohistochemistry.
Brains were fixed by immersion in 4% formaldehyde for at least 72 hours. The brains were then washed with PBS and transferred to 30% sucrose in PBS until they sank. […] Quantitative analysis was carried out by counting the number of TH-immunoreactive cells/mm^2 at the widest area of the SNpc.
Treatment of the animals with the test compounds results in a dose-dependent preservation of the TH-IR cells. Percent preservation is calculated by dividing the number of rescued cells (treatment-MPTP) by the maximal possible number of rescued cells (saline-MPTP). […]

The subject of test [2] is COX-2 gene expression. Briefly: COX-2 gene expression in MCAo mice brains. To be noted: 5 mg/kg i.v., 18 hrs following MCAo.
For test [3], the system named is COX-2 gene expression. Kind of test: COX-2 gene expression in activated Jurkat T cells. The test is classed as cell-based, human. To be noted: 10 μM, normalized to GAPDH. Here is the method: II reverse transcriptase (Life Technologies).
The human acute lymphoma T cell line Jurkat (ATCC # TIB 152) was used to test the possible immunosuppressive effect of dexanabinol and its analogs on T cell activation. The Jurkat cells were grown in RPMI 1640 medium with 2 mM L-glutamine adjusted to contain 1.5 g/L sodium bicarbonate, 4.5 g/L glucose, 10 mM HEPES, 1.0 mM sodium pyruvate, and 10% heat inactivated fetal bovine serum. Cells were grown in tissue culture flasks and seeded at appropriate density into 24 wells tissue culture plates. 2×10^6 cells in one milliliter were stimulated using 10 ng/ml of PMA (Sigma) and 1 μM A23187 calcium ionophore (Sigma). […] The controls and test compounds were added at indicated concentrations one hour before stimulation.
In addition, we used this experimental system to test the impact of dexanabinol and its analogs on COX-2 gene expression. Following activation of Jurkat cells with PMA and calcium ionophore we obtained elevated COX-2 gene expression levels. The impact of the test compounds on COX-2 was assessed as previously described for IL-2. FIG. 2 depicts the results of this experiment as fold activation of COX-2 over non-activated T cells. The results are plotted after normalization to GAPDH expression. […]

Sequence of recombinant COX-2 (P35354 18-604): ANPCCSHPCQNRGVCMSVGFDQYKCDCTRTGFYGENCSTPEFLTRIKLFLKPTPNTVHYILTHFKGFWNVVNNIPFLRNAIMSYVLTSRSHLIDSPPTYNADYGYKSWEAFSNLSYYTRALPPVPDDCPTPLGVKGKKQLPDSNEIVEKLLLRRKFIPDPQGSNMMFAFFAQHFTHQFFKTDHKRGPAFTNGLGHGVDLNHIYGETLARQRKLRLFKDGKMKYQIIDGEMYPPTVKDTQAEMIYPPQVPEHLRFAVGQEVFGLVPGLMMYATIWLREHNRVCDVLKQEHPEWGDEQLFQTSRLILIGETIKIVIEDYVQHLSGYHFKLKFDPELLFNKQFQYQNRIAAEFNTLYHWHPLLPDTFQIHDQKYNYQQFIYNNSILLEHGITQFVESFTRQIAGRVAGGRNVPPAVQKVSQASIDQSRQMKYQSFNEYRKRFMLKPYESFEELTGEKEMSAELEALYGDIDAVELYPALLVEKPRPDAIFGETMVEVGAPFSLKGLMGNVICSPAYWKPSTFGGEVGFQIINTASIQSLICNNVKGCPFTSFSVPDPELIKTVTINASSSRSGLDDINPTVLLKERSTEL

In the case of `CCCCCCC(C)(C)c1cc(O)c2c(c1)OC(C)(C)[C@H]1CC=C(CO)C[C@H]21` [dexanabinol, 1,1-dimethylheptyl-(3S,4S)-7-hydroxy-Δ^6-tetrahydrocannabinol], the “Modulation of IL-1β gene expression” value in the test with IL-1β gene expression was “not modulated”. Besides, the IC50 in the test on IL-1β secretion stood at 6 µM. The “Further increase of IL-10 gene expression vs vehicle” value in the test with IL-10 gene expression is given as 4.4 fold. Further, the “Inhibition of COX-2 enzymatic activity” value on recombinant COX-2 was “no inhibitory effect”. Besides, the “Reduction of IL-2 gene activation vs vehicle” value in the test on IL-2 gene expression was determined as 177%. The “Preservation of TH-IR cells” value in test [1] (20 mg/kg i.p., seven days after MPTP) is listed as “about 25%”. Also, the “Effect of increasing the dose on TH-IR cell preservation” value in test [1] (30 mg/kg vs 20 mg/kg) is reported as “no significant effect”. The “Reduction of COX-2 gene activation vs vehicle” value in the test on COX-2 gene expression [2] worked out at 38%. Moreover, the “Inhibition of COX-2 gene expression” value with COX-2 gene expression [3] was 88%.

For orientation: IC50 means the midpoint of a concentration-inhibition curve.

The values above are taken from patent US20050137251A1, “Dexanabinol and dexanabinol analogs regulate inflammation related genes” (priority 2002, published 2005).
